Assay results as given in ChEMBL document CHEMBL3352741, “Discovery of VU0431316: a negative allosteric modulator of mGlu5 with activity in a mouse model of anxiety” (Bioorg Med Chem Lett, 2014).
Calls of active or inactive are those of the source. The rule behind the calls is not given here.

What was measured:
[1] = Cmax in Sprague-Dawley rat at 10 mg/kg, po administered as single dose after 15 to 1440 mins by LC-MS/MS method; format: ADME, organism-based; set-up: dose 10 mg/kg, route oral; details: in vivo
[2] = Plasma concentration in Harlan CD1 mouse at 30 mg/kg, ip after 60 mins; format: ADME, organism-based; set-up: dose 30 mg/kg, route intraperitoneal
Cytochrome P450 2D6 = Cytochrome P450 2D6 (Homo sapiens, UniProt P10635); test: Inhibition of CYP2D6 in pooled human liver microsomes in presence of NADPH; format: ADME
[3] = Drug level in Harlan CD1 mouse brain at 30 mg/kg, ip after 15 mins; format: ADME, organism-based; set-up: dose 30 mg/kg, route intraperitoneal; details: read-out: Drug uptake
Cytochrome P450 2C9 = Cytochrome P450 2C9 (Homo sapiens, UniProt P11712); test: Inhibition of CYP2C9 in pooled human liver microsomes in presence of NADPH; format: ADME
Plasma [4] = test: Fraction unbound in rat plasma by equilibrium dialysis method; format: ADME, cell-free
[5] = biological target: Metabotropic glutamate receptor 5 (Homo sapiens, UniProt P41594); test: Negative allosteric modulator activity at human mGlu5 assessed as reduction in glutamate-induced calcium mobilization; format: functional
[6] = biological target: Metabotropic glutamate receptor 3 (Homo sapiens) (UniProt Q14832); test: Activity at mGlu3 (unknown origin) expressed in HEK293-GIRK cells at 10 uM by thallium flux assay; format: cell-based
[7] = biological target: Metabotropic glutamate receptor 2 (Homo sapiens) (UniProt Q14416); test: Activity at mGlu2 (unknown origin) expressed in HEK293-GIRK cells at 10 uM by thallium flux assay; format: cell-based
Plasma [8] = test: Fraction unbound in human plasma by equilibrium dialysis method; format: ADME, cell-free
[9] = Drug level in Sprague-Dawley rat brain at 10 mg/kg, po administered as single dose after 60 mins by LC-MS/MS method; format: ADME, organism-based; set-up: dose 10 mg/kg, route oral; details: read-out: Drug uptake
[10] = Plasma concentration in Harlan CD1 mouse at 30 mg/kg, ip after 30 mins; format: ADME, organism-based; set-up: dose 30 mg/kg, route intraperitoneal
[11] = Apparent permeability from apical to basolateral side in human Caco2 cells; format: ADME, cell-based; details: caco-2
[12] = biological target: Metabotropic glutamate receptor 4 (Homo sapiens) (UniProt Q14833); test: Activity at mGlu4 (unknown origin) expressed in HEK293-GIRK cells at 10 uM by thallium flux assay; format: cell-based
Mus musculus = test: In vivo mGlu5 negative allosteric modulator activity in Harlan CD1 mouse marble burying model of anxiety assessed as reduction in marble burying at => 10 mg/kg, ip dosed 15 mins before test; format: functional, organism-based; set-up: dose 10 mg/kg
[13] = Volume of distribution at steady state in Sprague-Dawley rat at 1 mg/kg, iv after 2 to 1440 mins by LC-MS/MS method; format: ADME, organism-based; set-up: dose 1 mg/kg, route intravenous; details: in vivo, read-out: Vdss
[14] = Drug level in Sprague-Dawley rat hepatic portal vein at 10 mg/kg, po administered as single dose after 60 mins by LC-MS/MS method; format: ADME, organism-based; set-up: dose 10 mg/kg, route oral; details: read-out: Drug uptake
[15] = Ratio of drug level in brain to plasma in Sprague-Dawley rat at 10 mg/kg, po administered as single dose after 60 mins by LC-MS/MS method; format: ADME, organism-based; set-up: dose 10 mg/kg, route oral; details: read-out: BPR
Plasma [16] = test: Fraction unbound in cynomolgus monkey plasma by equilibrium dialysis method; format: ADME, cell-free, Macaca fascicularis
[17] = Drug level in Harlan CD1 mouse brain at 30 mg/kg, ip after 30 mins; format: ADME, organism-based; set-up: dose 30 mg/kg, route intraperitoneal; details: read-out: Drug uptake
[18] = biological target: Metabotropic glutamate receptor 7 (Homo sapiens) (UniProt Q14831); test: Activity at mGlu7 (unknown origin) expressed in HEK293-GIRK cells at 10 uM by thallium flux assay; format: cell-based
MDCK [19] = test: Apparent permeability from apical to basolateral side in wild type MDCK cells; format: ADME, cell-based, Canis lupus familiaris; details: dog
Cytochrome P450 1A2 = biological target: T1, Cytochrome P450 1A2 (Homo sapiens, UniProt P05177); test: Inhibition of CYP1A2 in pooled human liver microsomes in presence of NADPH; format: ADME
T1 sequence (P05177 whole entry): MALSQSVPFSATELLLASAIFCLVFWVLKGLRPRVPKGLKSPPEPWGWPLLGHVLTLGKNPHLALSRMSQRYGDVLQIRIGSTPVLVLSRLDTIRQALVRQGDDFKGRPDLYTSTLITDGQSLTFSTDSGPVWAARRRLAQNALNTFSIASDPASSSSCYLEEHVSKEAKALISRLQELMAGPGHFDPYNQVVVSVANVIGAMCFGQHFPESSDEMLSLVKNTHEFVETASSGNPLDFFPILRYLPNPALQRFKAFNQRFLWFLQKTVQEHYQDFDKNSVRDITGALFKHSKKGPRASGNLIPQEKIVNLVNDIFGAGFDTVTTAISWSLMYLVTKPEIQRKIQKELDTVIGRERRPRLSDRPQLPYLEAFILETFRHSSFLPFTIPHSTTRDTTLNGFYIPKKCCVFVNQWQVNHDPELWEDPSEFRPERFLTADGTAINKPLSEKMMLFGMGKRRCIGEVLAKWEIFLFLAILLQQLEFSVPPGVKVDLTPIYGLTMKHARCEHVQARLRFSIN

[20] = Plasma concentration in Sprague-Dawley rat at 10 mg/kg, po administered as single dose after 60 mins by LC-MS/MS method; format: ADME, organism-based; set-up: dose 10 mg/kg, route oral
MDCK [21] = test: Apparent permeability from basolateral to apical side in wild type MDCK cells; format: ADME, cell-based, Canis lupus familiaris; details: dog
[22] = AUC in Sprague-Dawley rat at 1 mg/kg, iv after 2 to 1440 mins by LC-MS/MS method; format: ADME, organism-based; set-up: dose 1 mg/kg, route intravenous; details: plasma
[23] = Apparent permeability from basolateral to apical side in human Caco2 cells; format: ADME, cell-based; details: caco-2
[24] = AUC in Sprague-Dawley rat at 10 mg/kg, po administered as single dose after 15 to 1440 mins by LC-MS/MS method; format: ADME, organism-based; set-up: dose 10 mg/kg, route oral; details: plasma
[25] = biological target: Metabotropic glutamate receptor 1 (Rattus norvegicus) (UniProt P23385); test: Activity at rat mGlu1 expressed in HEK293 cells at 10 uM by calcium flux assay; format: functional, cell-based
[26] = biological target: Metabotropic glutamate receptor 5 (Rattus norvegicus) (UniProt P31424); test: Negative allosteric modulator activity at rat mGlu5 expressed in HEK293A cells assessed as reduction in 100 uM glutamate-induced calcium mobilization at 30 uM; format: functional, cell-based; details: HEK293-A
Cytochrome P450 3A4 = Cytochrome P450 3A4 (Homo sapiens, UniProt P08684); test: Inhibition of CYP3A4 in pooled human liver microsomes in presence of NADPH; format: ADME
[27] = biological target: T2, Metabotropic glutamate receptor 5 (Rattus norvegicus, UniProt P31424); test: Displacement of [3H]methoxyPEPy from rat mGlu5 expressed in HEK293A cells after 1 hr by scintillation counting method; format: cell-based, HEK293-A
Brain = test: Fraction unbound in mouse brain homogenates by equilibrium dialysis method; format: ADME, tissue-based; details: brain homogenate
[28] = biological target: Metabotropic glutamate receptor 8 (Homo sapiens) (UniProt O00222); test: Activity at mGlu8 (unknown origin) expressed in HEK293-GIRK cells at 10 uM by thallium flux assay; format: cell-based
[29] = Efflux ratio in human Caco2 cells; format: ADME, cell-based; details: caco-2
[30] = Tmax in Sprague-Dawley rat at 10 mg/kg, po administered as single dose after 15 to 1440 mins by LC-MS/MS method; format: ADME, organism-based; set-up: dose 10 mg/kg, route oral; details: in vivo
[31] = Oral bioavailability in Sprague-Dawley rat at 10 mg/kg administered as single dose after 15 to 1440 mins by LC-MS/MS method; format: ADME, organism-based; details: in vivo
[32] = Plasma concentration in Harlan CD1 mouse at 30 mg/kg, ip after 15 mins; format: ADME, organism-based; set-up: dose 30 mg/kg, route intraperitoneal
[33] = Clearance in Sprague-Dawley rat at 1 mg/kg, iv after 2 to 1440 mins by LC-MS/MS method; format: ADME, organism-based; set-up: dose 1 mg/kg, route intravenous; details: in vivo
[34] = Drug level in Harlan CD1 mouse brain at 30 mg/kg, ip after 60 mins; format: ADME, organism-based; set-up: dose 30 mg/kg, route intraperitoneal; details: read-out: Drug uptake
[35] = Half life in Sprague-Dawley rat at 1 mg/kg, iv after 2 to 1440 mins by LC-MS/MS method; format: ADME, organism-based; set-up: dose 1 mg/kg, route intravenous; details: in vivo
MDCK [36] = test: Efflux ratio in wild type MDCK cells; format: ADME, cell-based, Canis lupus familiaris; details: dog
[37] = biological target: T2, Metabotropic glutamate receptor 5; test: Negative allosteric modulator activity at rat mGlu5 expressed in HEK293A cells assessed as reduction in glutamate-induced calcium mobilization; format: functional, cell-based, HEK293-A
[38] = biological target: Metabotropic glutamate receptor 6 (Homo sapiens) (UniProt O15303); test: Activity at mGlu6 (unknown origin) expressed in HEK293-GIRK cells at 10 uM by thallium flux assay; format: cell-based

T2 sequence (P31424 whole entry): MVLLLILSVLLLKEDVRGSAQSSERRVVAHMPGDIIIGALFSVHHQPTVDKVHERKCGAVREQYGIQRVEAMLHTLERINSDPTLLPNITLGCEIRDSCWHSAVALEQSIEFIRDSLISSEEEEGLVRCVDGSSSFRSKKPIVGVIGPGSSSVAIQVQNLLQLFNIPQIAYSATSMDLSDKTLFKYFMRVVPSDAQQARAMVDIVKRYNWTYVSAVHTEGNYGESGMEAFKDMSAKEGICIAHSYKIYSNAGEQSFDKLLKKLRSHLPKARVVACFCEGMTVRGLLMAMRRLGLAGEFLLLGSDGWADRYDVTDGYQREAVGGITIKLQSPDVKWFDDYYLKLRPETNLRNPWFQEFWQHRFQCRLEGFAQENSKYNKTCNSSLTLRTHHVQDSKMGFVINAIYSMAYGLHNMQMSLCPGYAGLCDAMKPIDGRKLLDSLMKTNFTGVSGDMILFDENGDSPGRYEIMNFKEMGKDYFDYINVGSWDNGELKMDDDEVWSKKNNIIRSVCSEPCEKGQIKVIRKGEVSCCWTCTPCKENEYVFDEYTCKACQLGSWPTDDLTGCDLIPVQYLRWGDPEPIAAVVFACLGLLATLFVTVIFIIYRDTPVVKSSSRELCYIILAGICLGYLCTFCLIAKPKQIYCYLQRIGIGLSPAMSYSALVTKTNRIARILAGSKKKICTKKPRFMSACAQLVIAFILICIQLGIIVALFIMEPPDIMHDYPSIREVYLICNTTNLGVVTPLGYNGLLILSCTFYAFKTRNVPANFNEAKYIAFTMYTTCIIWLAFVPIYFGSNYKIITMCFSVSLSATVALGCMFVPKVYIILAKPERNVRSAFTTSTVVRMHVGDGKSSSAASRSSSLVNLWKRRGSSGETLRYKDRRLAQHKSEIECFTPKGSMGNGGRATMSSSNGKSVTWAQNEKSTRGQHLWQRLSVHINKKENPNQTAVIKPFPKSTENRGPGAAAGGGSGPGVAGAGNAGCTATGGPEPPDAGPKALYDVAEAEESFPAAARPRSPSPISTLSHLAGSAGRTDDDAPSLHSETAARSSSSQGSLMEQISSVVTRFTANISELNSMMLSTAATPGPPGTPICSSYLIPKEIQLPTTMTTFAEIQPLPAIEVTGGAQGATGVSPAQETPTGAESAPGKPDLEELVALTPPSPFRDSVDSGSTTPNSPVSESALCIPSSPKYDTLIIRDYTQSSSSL
Metabotropic glutamate receptor 2 (Homo sapiens), sequence (Q14416 19-872 limits assumed): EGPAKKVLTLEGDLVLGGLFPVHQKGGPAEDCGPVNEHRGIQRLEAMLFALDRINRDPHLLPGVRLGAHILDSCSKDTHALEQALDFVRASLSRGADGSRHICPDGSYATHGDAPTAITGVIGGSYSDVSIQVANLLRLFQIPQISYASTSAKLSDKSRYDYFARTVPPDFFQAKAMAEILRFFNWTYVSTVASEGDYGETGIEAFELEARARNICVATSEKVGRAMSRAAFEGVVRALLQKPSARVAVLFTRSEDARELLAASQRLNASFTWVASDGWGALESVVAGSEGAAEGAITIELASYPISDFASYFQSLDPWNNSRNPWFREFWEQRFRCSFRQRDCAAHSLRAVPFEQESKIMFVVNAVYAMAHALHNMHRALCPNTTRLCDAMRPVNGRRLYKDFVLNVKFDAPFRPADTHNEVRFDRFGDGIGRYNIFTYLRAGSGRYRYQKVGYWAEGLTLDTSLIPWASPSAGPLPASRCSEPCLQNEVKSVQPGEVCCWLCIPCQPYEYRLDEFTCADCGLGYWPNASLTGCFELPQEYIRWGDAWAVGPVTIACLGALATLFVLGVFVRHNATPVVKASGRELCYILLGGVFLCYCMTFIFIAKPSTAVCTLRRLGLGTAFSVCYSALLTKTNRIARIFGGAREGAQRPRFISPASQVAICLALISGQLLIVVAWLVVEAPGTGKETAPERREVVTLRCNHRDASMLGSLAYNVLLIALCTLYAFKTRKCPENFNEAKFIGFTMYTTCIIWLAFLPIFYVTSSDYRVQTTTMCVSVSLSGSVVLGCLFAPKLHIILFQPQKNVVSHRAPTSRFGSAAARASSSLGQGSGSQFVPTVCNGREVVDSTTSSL
Metabotropic glutamate receptor 4 (Homo sapiens), sequence (Q14833 whole entry): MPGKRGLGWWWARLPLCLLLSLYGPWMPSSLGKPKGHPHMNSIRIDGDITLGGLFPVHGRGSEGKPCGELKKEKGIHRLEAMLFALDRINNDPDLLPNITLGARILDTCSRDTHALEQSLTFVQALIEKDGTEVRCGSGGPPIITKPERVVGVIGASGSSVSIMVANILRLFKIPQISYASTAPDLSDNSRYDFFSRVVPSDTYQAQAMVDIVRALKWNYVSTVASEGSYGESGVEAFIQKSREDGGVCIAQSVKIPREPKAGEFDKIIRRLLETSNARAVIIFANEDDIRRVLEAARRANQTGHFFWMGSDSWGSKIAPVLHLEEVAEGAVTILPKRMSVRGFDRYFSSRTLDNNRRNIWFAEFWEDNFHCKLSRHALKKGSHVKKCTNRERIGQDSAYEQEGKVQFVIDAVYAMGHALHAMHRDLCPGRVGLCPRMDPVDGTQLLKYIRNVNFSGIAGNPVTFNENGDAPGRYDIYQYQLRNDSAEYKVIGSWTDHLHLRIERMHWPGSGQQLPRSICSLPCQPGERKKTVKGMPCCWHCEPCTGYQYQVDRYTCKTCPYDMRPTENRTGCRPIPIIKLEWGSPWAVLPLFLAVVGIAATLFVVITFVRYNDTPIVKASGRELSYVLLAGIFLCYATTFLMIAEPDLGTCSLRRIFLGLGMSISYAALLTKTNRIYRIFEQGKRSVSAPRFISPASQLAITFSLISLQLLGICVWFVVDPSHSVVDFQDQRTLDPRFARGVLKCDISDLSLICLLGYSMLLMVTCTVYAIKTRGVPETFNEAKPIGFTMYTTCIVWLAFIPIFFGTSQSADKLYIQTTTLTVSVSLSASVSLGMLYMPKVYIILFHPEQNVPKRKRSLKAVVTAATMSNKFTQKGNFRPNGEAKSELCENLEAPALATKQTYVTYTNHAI
Cytochrome P450 3A4, sequence (P08684 whole entry): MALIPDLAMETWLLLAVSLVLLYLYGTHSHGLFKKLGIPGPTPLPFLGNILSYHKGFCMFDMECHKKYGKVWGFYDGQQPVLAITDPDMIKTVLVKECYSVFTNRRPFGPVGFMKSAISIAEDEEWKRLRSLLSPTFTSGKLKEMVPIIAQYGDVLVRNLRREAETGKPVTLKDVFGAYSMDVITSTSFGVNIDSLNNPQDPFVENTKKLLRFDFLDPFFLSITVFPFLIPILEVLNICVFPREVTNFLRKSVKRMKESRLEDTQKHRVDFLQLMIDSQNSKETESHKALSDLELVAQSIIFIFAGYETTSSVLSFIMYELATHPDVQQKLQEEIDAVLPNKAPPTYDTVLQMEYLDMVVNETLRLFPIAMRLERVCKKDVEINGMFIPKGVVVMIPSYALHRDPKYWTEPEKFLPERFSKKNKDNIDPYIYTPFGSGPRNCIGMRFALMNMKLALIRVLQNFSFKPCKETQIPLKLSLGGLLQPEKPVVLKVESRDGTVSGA
Metabotropic glutamate receptor 7 (Homo sapiens), sequence (Q14831 whole entry): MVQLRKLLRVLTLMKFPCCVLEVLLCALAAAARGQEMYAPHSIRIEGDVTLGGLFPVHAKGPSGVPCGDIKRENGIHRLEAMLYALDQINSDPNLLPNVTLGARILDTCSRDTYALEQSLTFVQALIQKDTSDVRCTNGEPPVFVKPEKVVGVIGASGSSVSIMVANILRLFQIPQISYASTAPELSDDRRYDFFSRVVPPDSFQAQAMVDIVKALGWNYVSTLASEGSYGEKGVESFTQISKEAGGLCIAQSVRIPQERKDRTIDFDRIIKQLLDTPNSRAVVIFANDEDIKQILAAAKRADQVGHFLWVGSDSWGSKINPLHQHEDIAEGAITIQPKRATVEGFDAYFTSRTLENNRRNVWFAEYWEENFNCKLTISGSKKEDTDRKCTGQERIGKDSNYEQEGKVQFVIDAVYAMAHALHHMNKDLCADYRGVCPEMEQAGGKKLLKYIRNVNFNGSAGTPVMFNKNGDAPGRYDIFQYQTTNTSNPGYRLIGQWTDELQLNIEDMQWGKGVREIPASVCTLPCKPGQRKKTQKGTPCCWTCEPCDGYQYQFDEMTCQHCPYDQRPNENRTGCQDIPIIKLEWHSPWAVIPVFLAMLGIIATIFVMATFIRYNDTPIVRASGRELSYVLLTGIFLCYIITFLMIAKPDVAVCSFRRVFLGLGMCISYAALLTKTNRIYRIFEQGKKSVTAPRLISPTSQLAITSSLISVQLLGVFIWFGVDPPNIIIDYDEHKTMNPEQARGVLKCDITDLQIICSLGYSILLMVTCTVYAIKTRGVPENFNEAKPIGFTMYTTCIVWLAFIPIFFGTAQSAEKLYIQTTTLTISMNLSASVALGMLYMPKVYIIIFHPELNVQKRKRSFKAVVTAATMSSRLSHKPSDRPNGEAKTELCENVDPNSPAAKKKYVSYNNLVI
Cytochrome P450 2D6, sequence (P10635 whole entry): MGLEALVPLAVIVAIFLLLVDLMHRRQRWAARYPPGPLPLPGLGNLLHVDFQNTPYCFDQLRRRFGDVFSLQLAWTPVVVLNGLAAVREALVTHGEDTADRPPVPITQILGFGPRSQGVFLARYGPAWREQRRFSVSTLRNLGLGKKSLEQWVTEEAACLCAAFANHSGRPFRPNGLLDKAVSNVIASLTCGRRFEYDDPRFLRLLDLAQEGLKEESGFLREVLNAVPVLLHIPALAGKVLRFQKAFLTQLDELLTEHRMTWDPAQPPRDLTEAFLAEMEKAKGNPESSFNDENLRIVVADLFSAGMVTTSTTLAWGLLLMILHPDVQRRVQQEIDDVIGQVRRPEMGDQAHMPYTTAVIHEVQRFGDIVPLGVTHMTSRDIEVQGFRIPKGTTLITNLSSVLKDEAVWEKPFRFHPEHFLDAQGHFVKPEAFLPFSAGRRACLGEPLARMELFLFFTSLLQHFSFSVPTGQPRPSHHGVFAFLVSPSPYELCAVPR

Molecule `O=C(Nc1cncc(Oc2cncnc2)n1)c1cc(Cl)ccn1` has a Cmax [1] of 1120 nM, a concentration at 1 h [2] of 1690 nM and an IC50 (Cytochrome P450 2D6) greater than 30000 nM. The concentration at 0.25 h [3] was 6210 nM, the IC50 (Cytochrome P450 2C9) was greater than 30000 nM and the Fu (Plasma [4]) was 0.179. For the same molecule, the IC50 [5] was 85 nM, the Activity [6] was “inactive” and the Activity [7] was “inactive”. The Fu (Plasma [8]) was 0.12, the concentration at 1 h [9] was 1450 nM and the concentration at 0.5 h [10] was 3000 nM. The Papp [11] was 66.8 ×10⁻⁶ cm/s, the Activity [12] was “inactive” and the Activity (Mus musculus) was “Active”. The Vd [13] was 2.7 L/kg, the concentration at 1 h [14] was 1310 nM and the Kp at 1 h [15] was 1.6. The Fu (Plasma [16]) was 0.167, the concentration at 0.5 h [17] was 3690 nM and the Activity [18] was “inactive”. For the same molecule, the Papp (MDCK [19]) was 50.4 ×10⁻⁶ cm/s, the IC50 (Cytochrome P450 1A2) was 600 nM and the concentration at 1 h [20] was 920 nM. For the same molecule, the Papp (MDCK [21]) was 45 ×10⁻⁶ cm/s, the AUC [22] was 1.73 µM·h and the Papp [23] was 71.4 ×10⁻⁶ cm/s. The AUC [24] was 8.37 µM·h, the Activity [25] was “inactive” and the %max [26] was 1.6%. It also gave an IC50 (Cytochrome P450 3A4) greater than 30000 nM, a Ki [27] of 37 nM and a Fu (Brain) of 0.054. The Activity [28] was “inactive”, the Ratio [29] was 1.07 and the Tmax [30] was 4 h. The bioavailability [31] was 48%, the concentration at 0.25 h [32] was 3990 nM and the clearance [33] was 30.2 mL/min/kg. The concentration at 1 h [34] was 2800 nM, the half-life [35] was 3.22 h and the Ratio (MDCK [36]) was 0.89. The IC50 [37] was 62.4 nM and the Activity [38] was “inactive”.
